Experiment [1] can be described thus: Sensory evaluation by quantitative descriptive evaluation technique (ten trained panelists, 15-point linescale). The format is in vivo, human. Here is the method: Compounds 102-105 and Comparative Compound 1 were evaluated using a quantitative descriptive evaluation technique. Ten panelists participated in the study. These panelists previously underwent extensive training in the use of standardized vocabulary to describe the appearance, aroma, flavor, and texture of a variety of products. Data collection was conducted over a period of seven days, with panelists evaluating two samples on each day of testing. Two evaluations were obtained from each panelist for each compound yielding a total of 20 evaluations per compound. During the data collection, the panelists were give a list of attributes and instructed to indicate the intensity of each attribute by indicating the intensity on a 15-point linescale. The intensity was evaluated for the following time periods: in-mouth, after expectoration, and 30 seconds, 1, 2, 5, 10, 15, 30, 45, and 60 minutes into the aftertaste period.
Compounds 102, 103, and 105 were prepared as 5 μM solutions and Compound 104 and Comparative Compound 1 were prepared in 3 μM solutions. 15 mL aliqouts of the test solutions were administered to Panelists in 1 oz. plastic cups coded with a random 3-digit code. The Panelists refrained from brushing their teeth, eating, and drinking one hour before each evaluation. Mean intensities were calculated based on the Panelists responses for each sensory characteristic. The sensory characteristics evaluated were bitter, icy cool in mouth, numbing, cooling breathe in, total burning, alcohol burning, pepperine/capsaicin, tingling, and total trigeminal impact. For each sensory characteristic, the scale of the intensity was designed to cover a range encompassing the universe of products having the indicated sensory characteristic.
After mean intensities for each attribute were calculated, statistical significance for each mean intensity was calculated using analysis of variance (ANOVA) followed by Duncan's multiple comparison test at an alpha level of 5%. […] In the results provided herein, the Duncan's levels are reported as Levels A, B, and C.
Panelists were asked to assess the intensity of both capsaicin-like burning and Alcohol-like Burning sensations for Compounds 102 and 103 and Comparative Compound 1. Capsaicin-like burning is the sensation of warming or burning in the mouth, reminiscent of black pepper or hot sauce while alcohol-like burning is the sensation of warming or burning in the mouth, reminiscent of an alcohol burn. The combination of the intensity of these sensations was used to assess the total burning for the tested compounds. The average total burning after expectoration to 60 minutes was lower for both 5 μM Compound 102 and 5 μM Compound 103 as compared to 3 μM Comparative Compound 1.
The total intensity of trigeminal nerve feeling factors on the soft tissues of the mouth, including numbing, cooling (without breathing in), irritation, warming, burning, and tingling were determined for Compounds 102 and 103 and Comparative Compound 1. The average total trigeminal impact after expectoration to 60 minutes was lower for both 5 μM Compound 102 and 5 μM Compound 103 as compared to 3 μM Comparative Compound 1.
Icy cool in mouth is the sensation of coolness of the mouth, perceived with the mouth closed, not related to the temperature of the sample. Panelists were asked to assess the sensation of icy cool in mouth for Compound 104 and Compound 105 from the time immediately after expectoration of the sample through 60 minutes after expectoration. The average Icy Cool after expectoration to 60 minutes was higher for both 5 μM Compound 105 and 3 μM Compound 104 as compared to 3 μM Comparative Compound 1.
Cooling Breath In is the sensation of coolness of the mouth, when inhaling through the mouth, not related to the temperature of the sample. […]

Experiment [2] is described as follows: Cool Line Scale Test (sensory study, cooling intensity vs 45 μM WS-3). It counts as in vivo, human. To be noted: for Sensory Results (cooling intensity relative to 45 μM WS-3): 5 μM compound vs 45 μM WS-3, Low Sodium Buffer pH ~7.1, 0.1% ethanol, 15 point line scale; for lingering effect: sensory study. Here is the method:
A typical sensory study is described below followed by Table 5 summarizing sensory results of Compounds 101-105.
All samples made with Low Sodium Buffer (LSB) pH ˜7.1 and contain 0.1% ethanol.
Compounds are rated on a 15 point line scale where 45 μM WS-3 (N-Ethyl-p-menthane-3-carboxamide) is ranked as a 5 in cool intensity. In most cases, the compounds are tested to determine at what concentration the cooling intensity is equivalent to 45 μM WS-3. In each test, the panelist is presented with a 0 μM control sample, a 45 μM WS-3 control sample and the experimental compound sample and asked to rate the cooling intensity of each sample.

Experiment [3] has as its target T1, hTRPM8 (Homo sapiens, UniProt Q7Z2W7).
T1 construct: expressed in transfected cells
The experiment in a line: hTRPM8 agonist assay in mammalian cell line stably expressing hTRPM8. It counts as cell-based. The conditions noted are these: EC50 of compound compared to that of WS-3, reported as a ratio. Here is the method: A mammalian cell line derivative which stably expresses hTRPM8 was used in biological assays in association with testing the present compounds with cool-tasting or -feeling properties (Servant et al. US 2007/0259354 A1 and references cited therein). Typical compound concentrations tested were 100 μM, 30 μM, 10 μM, 3.3 μM, 1.1 μM, 0.37 μM, 0.12 μM, 0.04 μM, 0.01 μM and more dilutions for very potent compounds. The present compounds have shown strong activity as agonists of hTRPM8. […] For the sake of comparison, the EC50 of Comparative Compound 1, which was previously disclosed in U.S. 2013/0324557 A1 and has the structure

From US10392371B2, “Compounds useful as modulators of TRPM8” (Senomyx, Inc., priority 2015, dated 2019) come the findings set out here.

T1 sequence (Q7Z2W7 whole entry): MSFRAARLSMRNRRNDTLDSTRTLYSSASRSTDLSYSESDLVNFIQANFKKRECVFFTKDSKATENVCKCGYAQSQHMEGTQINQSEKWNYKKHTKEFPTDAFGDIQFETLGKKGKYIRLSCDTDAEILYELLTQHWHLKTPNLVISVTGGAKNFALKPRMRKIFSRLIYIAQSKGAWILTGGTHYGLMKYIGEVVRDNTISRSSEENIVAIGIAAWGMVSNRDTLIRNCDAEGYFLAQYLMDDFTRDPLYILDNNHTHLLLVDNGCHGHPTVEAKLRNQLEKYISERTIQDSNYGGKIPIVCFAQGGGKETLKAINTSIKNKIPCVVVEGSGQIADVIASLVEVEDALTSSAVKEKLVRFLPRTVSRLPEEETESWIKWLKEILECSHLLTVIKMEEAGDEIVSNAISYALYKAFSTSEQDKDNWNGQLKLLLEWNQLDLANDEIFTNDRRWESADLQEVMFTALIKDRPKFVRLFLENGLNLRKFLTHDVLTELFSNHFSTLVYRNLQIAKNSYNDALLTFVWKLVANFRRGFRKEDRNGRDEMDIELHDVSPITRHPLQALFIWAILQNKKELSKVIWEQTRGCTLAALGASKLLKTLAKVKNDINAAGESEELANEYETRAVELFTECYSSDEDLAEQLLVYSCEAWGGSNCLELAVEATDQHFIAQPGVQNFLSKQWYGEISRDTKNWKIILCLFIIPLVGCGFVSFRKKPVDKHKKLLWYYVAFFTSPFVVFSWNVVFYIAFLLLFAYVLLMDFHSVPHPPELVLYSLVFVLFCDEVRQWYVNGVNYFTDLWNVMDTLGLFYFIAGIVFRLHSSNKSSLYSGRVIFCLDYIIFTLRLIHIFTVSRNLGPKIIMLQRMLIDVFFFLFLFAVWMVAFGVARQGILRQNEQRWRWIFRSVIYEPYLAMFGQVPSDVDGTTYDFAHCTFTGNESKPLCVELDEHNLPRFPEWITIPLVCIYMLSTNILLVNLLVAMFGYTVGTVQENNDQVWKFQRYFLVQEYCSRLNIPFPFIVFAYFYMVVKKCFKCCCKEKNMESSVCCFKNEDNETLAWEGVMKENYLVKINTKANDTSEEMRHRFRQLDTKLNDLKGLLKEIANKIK

On to `COc1ccc(OCC(=O)N(Cc2cccs2)c2cc[nH]n2)cc1` [Compound 103, 2-(4-methoxyphenoxy)-N-(1H-pyrazol-3-yl)-N-(thiophen-2-ylmethyl)acetamide], for which, in experiment [1] (5 μM solution), the “Average Numbing (after expectoration to 60 minutes)” value (“Average Numbing” for short) stood at 1.3, the “Average Tingling (after expectoration to 60 minutes)” value (“Average Tingling” below) was 0.6, the “Average Total Burning (after expectoration to 60 minutes)” value (“Average Total Burning” below) was determined as 0.9 and the “Average Total Trigeminal Impact (after expectoration to 60 minutes)” value (“Average Total Trigeminal Impact” for short) is 2.3. Moreover, the “Average Bitterness at 2 Minutes After Expectoration (Bitterness Rating)” value (“Average Bitterness” below) in experiment [1] (5 μM solution) amounted to 0.90. Moreover, in experiment [2], the “Sensory Results (cooling intensity relative to 45 μM WS-3)” value is on record as “equivalent to the cooling” and the lingering effect result was “unexpected lingering effect”. Besides, the “EC50 WS-3 Ratio” value in experiment [3] worked out at 1050.9.
In the case of `Cc1ccc(OCC(=O)N(Cc2cccs2)c2ccn[nH]2)cc1` [Comparative Compound 1, reference compound], in experiment [1] (3 μM solution), the “Average Cooling Breath In (after expectoration to 60 minutes)” value is recorded as 2.5; the “Average Icy Cool In Mouth (after expectoration to 60 minutes)” value is listed as 2.1; the “Average Icy Cool In Mouth and Immediately After Expectoration” value is reported as 1.8; the “Average Numbing” value is given as 1.5. In addition, in experiment [1] (3 μM solution), the “Average Tingling” value is 0.7, the “Average Total Burning” value is recorded as 1.1, the “Average Total Trigeminal Impact” value amounted to 2.8 and the “Average Bitterness” value amounted to 1.10. In addition, the “EC50 WS-3 Ratio” value in experiment [3] was found to be 28648.
On to `CCc1ccc(OCC(=O)N(Cc2cccs2)c2cc[nH]n2)cc1` [Compound 104, 2-(4-ethylphenoxy)-N-(1H-pyrazol-3-yl)-N-(thiophen-2-ylmethyl)acetamide], for which, in experiment [1] (3 μM solution), the “Average Cooling Breath In (after expectoration to 60 minutes)” value was 2.7; the “Average Icy Cool In Mouth (after expectoration to 60 minutes)” value was found to be 2.3; the “Average Icy Cool In Mouth and Immediately After Expectoration” value is 2.0; the “Average Bitterness” value was 0.77. For the same compound, in experiment [2], the “Sensory Results (cooling intensity relative to 45 μM WS-3)” value is “significantly more cooling” and the lingering effect result is reported as “unexpected lingering effect”. Also, the “EC50 WS-3 Ratio” value in experiment [3] is reported as 1189444.
On to `O=C(COc1ccc(F)cc1)N(Cc1cccs1)c1cc[nH]n1` [Compound 102, 2-(4-flourophenoxy)-N-(1H-pyrazol-5-yl)-N-(thiophen-2-ylmethyl)acetamide], for which, in experiment [1] (5 μM solution), the “Average Numbing” value is on record as 1.4, the “Average Tingling” value amounted to 0.6, the “Average Total Burning” value was found to be 0.9 and the “Average Total Trigeminal Impact” value is 2.4. In addition, the “Average Bitterness” value in experiment [1] (5 μM solution) came out at 0.86. Besides, the “EC50 WS-3 Ratio” value in experiment [3] is 495.4.
Take `Cc1cccc(OCC(=O)N(Cc2cccs2)c2cc[nH]n2)c1` [Compound 101, N-(1H-pyrazol-3-yl)-N-(thiophen-2-ylmethyl)-2-(m-tolyloxy)acetamide]: in experiment [3], the “EC50 WS-3 Ratio” value is 696.3.
Turning to `Cc1ccc(OCC(=O)N(Cc2cccs2)c2cc[nH]n2)cc1C` [Compound 105, 2-(3,4-dimethylphenoxy)-N-(1H-pyrazol-3-yl)-N-(thiophen-2-ylmethyl)acetamide], in experiment [1] (5 μM solution), the “Average Cooling Breath In (after expectoration to 60 minutes)” value is 2.7; the “Average Icy Cool In Mouth (after expectoration to 60 minutes)” value was 2.3; the “Average Icy Cool In Mouth and Immediately After Expectoration” value is 1.9; the “Average Bitterness” value was determined as 0.82. Also, the lingering effect entry in experiment [2] is reported as “unexpected lingering effect”. Moreover, the “EC50 WS-3 Ratio” value in experiment [3] is recorded as 12169.3.
